Results: patent US7081256B2, “Quinolinone derivative pharmaceutical compositon and production method therefor” (Dainippon Ink and Chemicals, Inc., priority 2001, dated 2006)
Like-named read-outs stand apart in the source and are kept apart here. Blank lines part the entries; values can stand above or below the compound they belong to.

Legend:
[1] = Differential scanning calorimetry (DSC); assay type: physicochemical; conditions: for DSC Fusion enthalpy ΔH: 25 to 250° C., heating rate 20° C./min.
Excerpt: Furthermore, the quinolinone derivative used in the present invention has a fusion enthalpy (ΔH) of 30 J/g or more, and preferably 35 J/g or more. […] As used herein, the term “fusion enthalpy” refers to a value obtained from an endothermic peak due to fusion of the quinolinone derivative crystal in differential scanning calorimetry (DSC) and is an index of the crystallinity.
(§1) • Measurement of particle size distribution: The particle size distribution was automatically measured by AEROSIZER (manufactured by Central Scientific Commerce, Inc.). • DSC method: Using DSC7 (manufactured by Perkin Elmer Co.), the measurement was conducted at a temperature within a range from 25 to 250° C. under the conditions of a heating rate of 20° C./min. by a normal method.

[2] = Measurement of particle size distribution (AEROSIZER); assay type: physicochemical; conditions: for Average particle diameter: mass median aerodynamic diameter
Experimental: As used herein, the expression “quinolinone derivative is in the form of particles, which have an average particle diameter of 0.5 to 10 μm and such a particle size distribution that particles having a particle diameter of 15 μm or less account for 90% or more of the totality of the particles” means that a mass median aerodynamic diameter in the volume-basis distribution obtained, when the particle size distribution of the quinolinone derivative is measured by an aerodynamic flight time type dry particle size distribution measuring apparatus (AEROSIZER: Central Scientific Commerce, Inc.), is within a range from 0.5 to 10 μm and the particles have such a particle size distribution that particles having a particle diameter of 15 μm or less account for 90% or more of the totality of the particles.
as §1

[3] = dog, in vivo, po, 10 mg/kg
Experimental: After oral administration, 30 ml of distilled water was orally administered. After oral administration, 2.5 ml of blood was collected from the antebrachial vein over time and was then centrifuged to obtain blood plasma. After adding the one-fold amount of acetonitrile to blood serum to remove protein, the amounts of quinolinone derivative and its metabolite were determined by using HPLC.
From the quantitatively determined values of the quinolinone derivative and its metabolite immediately after collecting blood, an average value of a maximum concentration in blood (Cmax) and an average value of an area under a curve of concentration in blood vs time (AUC) were determined.

[4] = Dissolution test, paddle method, 50 rpm, 0.5% sodium lauryl sulfate; assay type: physicochemical; conditions: paddle 50 rpm, compared with the non-ground product
Experimental: Furthermore, dissolution properties of these quinolinone derivatives were evaluated by the dissolution test (paddle method). The results are shown in FIG. 2. • Powder X-ray diffraction method: Using RINT-ULTIMA (manufactured by Rigaku Denki Kogyo Co., Ltd.), the measurement was conducted at a diffraction angle within a range from 5 to 40° under the conditions of Cu—Kα rays, 40 KV and 30 mA by the normal method. • Dissolution test method: According to the second method (paddle method) of the dissolution test method of The Pharmacopoeia of Japan, Fourteenth Edition, the measurement was conducted under the conditions of a paddle rotational speed of 50 rpm using 0.5% sodium lauryl sulfate as a test liquid.
(§2) According to the disintegration test of The Pharmacopoeia of Japan, Fourteenth Edition, the disintegration time of the resulting tablets was measured by using water as a test liquid (n=3). […]
as §2, §2

- DSC Fusion enthalpy ΔH ([1]; listed as (B-1)): 51.6 J/g
- Proportion (%) of particles having a particle diameter of 15 μm or less based on the totality of the particles ([2]; listed as (B-1)): 95%
- Average particle diameter ([2]; listed as (B-1)): 6.6 μm
- AUC increase as compared with the non-ground product [3]: 8.7 times
- Cmax increase as compared with the non-ground product [3]: 9 times
Structure (SMILES): CCCCCCCCOc1c(O)c2ccc(NC(=O)/C=C/c3cc(OC)c(O)c(OC)c3)cc2n(C)c1=O [quinolinone derivative (B-1), 7-(3,5-dimethoxy-4-hydroxycinnamoylamino)-3-octyloxy-4-hydroxy-1-methyl-2(1H)-quinoline]

- DSC Fusion enthalpy ΔH [1]: ≥ 49.9 J/g
- DSC Fusion enthalpy ΔH ([1]; listed as (A)): 49.9 J/g
- Proportion (%) of particles having a particle diameter of 15 μm or less based on the totality of the particles [2]: ≥ 9.9%
- Proportion (%) of particles having a particle diameter of 15 μm or less based on the totality of the particles ([2]; listed as (A)): 9.9%
- Average particle diameter [2]: 25.3 μm
- Average particle diameter ([2]; listed as (A)): 25.3 μm
Structure (SMILES): CCCCCCCCOc1c(O)c2ccc(NC(=O)/C=C/c3cc(OC)c(O)c(OC)c3)cc2n(C)c1=O [quinolinone derivative (A), 7-(3,5-dimethoxy-4-hydroxycinnamoylamino)-3-octyloxy-4-hydroxy-1-methyl-2(1H)-quinoline]

- Solid state by DSC (endothermic peak of β-type crystal) ([1]; after grinding in agate mortar for 30 minutes): amorphous state
Structure (SMILES): CCCCCCCCOc1c(O)c2ccc(NC(=O)/C=C/c3cc(OC)c(O)c(OC)c3)cc2n(C)c1=O [Comparative Example 2, 7-(3,5-dimethoxy-4-hydroxycinnamoylamino)-3-octyloxy-4-hydroxy-1-methyl-2(1H)-quinoline]

- DSC Fusion enthalpy ΔH [1]: ≥ 52.7 J/g
- DSC Fusion enthalpy ΔH ([1]; listed as (B)): 52.7 J/g
- Proportion (%) of particles having a particle diameter of 15 μm or less based on the totality of the particles [2]: ≥ 0.6%
- Proportion (%) of particles having a particle diameter of 15 μm or less based on the totality of the particles ([2]; listed as (B)): 0.6%
- Average particle diameter [2]: 33.3 μm
- Average particle diameter ([2]; listed as (B)): 33.3 μm
Structure (SMILES): CCCCCCCCOc1c(O)c2ccc(NC(=O)/C=C/c3cc(OC)c(O)c(OC)c3)cc2n(C)c1=O [quinolinone derivative (B), 7-(3,5-dimethoxy-4-hydroxycinnamoylamino)-3-octyloxy-4-hydroxy-1-methyl-2(1H)-quinoline]

- DSC Fusion enthalpy ΔH ([1]; listed as (A-1)): 47.7 J/g
- dissolution rate (FIG. 2) [4]: drastically increased
- Proportion (%) of particles having a particle diameter of 15 μm or less based on the totality of the particles ([2]; listed as (A-1)): 100%
- Average particle diameter ([2]; listed as (A-1)): 4.5 μm
Structure (SMILES): CCCCCCCCOc1c(O)c2ccc(NC(=O)/C=C/c3cc(OC)c(O)c(OC)c3)cc2n(C)c1=O [quinolinone derivative (A-1), 7-(3,5-dimethoxy-4-hydroxycinnamoylamino)-3-octyloxy-4-hydroxy-1-methyl-2(1H)-quinoline]
